Experimental findings from a melting point compilation (Tetko et al.; mined from patent text by program, amines drawn as free bases though some values may be those of a salt) are described below.

`O=C1Nc2ccccc2SC1c1ccc(F)cc1` (stereo not drawn) returned a melting point of 216 to 219 °C.

`Nc1c(Br)cc2c(c1Br)C(C(Cl)(Cl)Cl)OC(C(Cl)(Cl)Cl)O2` (stereo not drawn) registered a melting point of 158 to 159 °C.

As for `O=C(CCC(=O)N1CCC[C@H]1C(=O)O)c1ccc(Br)s1`, the melting point fell in the range of 166 to 168 °C.

Compound `CCC(CC)c1ccc(Cl)c2nc(Cl)n(C)c12` came in with a melting point of 94 to 95 °C.

With `C[C@@H](N(CC(=O)O)C(=O)c1ccc(OCC(F)(F)F)cc1)[C@](O)(Cn1cncn1)c1ccc(F)cc1F` (relative stereo), the melting point was 168 to 177 °C.

Regarding `CCCCOc1cc(O)c(C#N)s1`, the melting point worked out at 107 °C.

For `O=C(O)C1Cc2ccccc2N1S(=O)(=O)c1ccc(-c2cccc(C(F)(F)F)c2)cc1` (stereo not drawn), the melting point fell in the range of 108 to 112 °C.

As to `CC(O)C1C(=O)N2C(C(=O)OCc3ccc([N+](=O)[O-])cc3)C(=O)CC12` (mixture of isomers), the melting point was in the range of 92 to 98 °C.

The compound `O=C(CCl)c1ccc(OCc2nnn[nH]2)cc1` displayed a melting point of 194 to 196 °C.

As to `CCCc1nc2c(N)nc3cc(F)ccc3c2o1`, the melting point lay within 184 to 187 °C.

Compound `CNc1ncn(-c2ccccc2C)c(=O)n1` registered a melting point of 192 °C.

`FC(F)c1cc(Cl)nc2c1cnn2C1CCCCO1` (stereo not drawn) had a melting point of 93 °C.

Compound `CN(CC1=C(C#N)C(c2cccc3nonc23)c2c[nH]nc2N1)C(=O)OC(C)(C)C` (stereo not drawn) displayed a melting point of 207 °C.

The compound `CCCCc1nc(=O)n2nc(-c3ccco3)cc2[nH]1` displayed a melting point of 190 °C.

For `CCC(C(=O)N(C)C)n1cc(C)c(-c2cccs2)n1` (stereo not drawn), the melting point was 83 to 85 °C.

In turn, `CCOC(=O)c1c(O)c(Br)c(Br)n1-c1ccccc1` displayed a melting point of 144 to 145 °C.

The compound `Cc1ccc2c(c1)N=C(Cl)c1cscc1O2` had a melting point of 208 to 209 °C.

The compound `CCOC(=O)C(C(=O)Nc1ccc(C)cc1)(c1ccccc1)c1ccccc1` returned a melting point of 88 to 90 °C.

As to `COC(=O)c1cc(C(=O)NC(C)(C)CO)c2cc(Cc3ccc(F)cc3)cnc2c1O`, the melting point lay in the range of 204 to 205 °C.

`COCOc1cc(Cl)ccc1-c1cc(-c2cccc([N+](=O)[O-])c2)c(C#N)c(N)n1` came in with a melting point of 196 to 198 °C.

Compound `COc1cc(C(=O)O)c(O)c2c1C(C)(C)CCC2(C)C` came in with a melting point of 213 °C.

Take `O=C(O)c1ccccc1OCC(F)(F)F`: the melting point is 85 to 86.5 °C.

As for `CC(C)c1n[nH]c2c(O)nc(O)nc12`, the melting point lay within 295 to 298 °C.

`COc1ccc(-c2[nH]c3cn[nH]c(=O)c3c2Cl)cc1OC1CCC1`: the melting point lay within 285 to 287 °C.

Turning to `CC(C)(C)c1cc(CCc2cc(F)cc(F)c2NC(=O)NCC(C)(C)c2ccc(Cl)c(Cl)c2)cc(C(C)(C)C)c1O`, the melting point is 159 to 160 °C.

Turning to `Nc1nc2c(ncn2COCCOC=O)c(=O)[nH]1`, the melting point lay within 225 to 227 °C.

`CSc1ncc(CCc2cccnc2)c(=O)[nH]1` registered a melting point of 191 to 192 °C.

The compound `Cc1c(Cc2cccc(C(F)(F)F)c2)sc2c(-c3cc(C(=O)O)ccn3)cccc12` returned a melting point of 271 to 272 °C.

Regarding `C=CCOc1cccc(-n2cnc(-c3nc(CC)no3)c2)c1`, the melting point lay in the range of 73 to 74 °C.

Consider `CN(C)CCn1cnc2cnc3ccccc3c21`, for which the melting point is > 250 °C.

Turning to `CN1C(=O)CC[C@]2(C)c3ccc(Sc4ccccc4)cc3CC[C@@H]12`, the melting point lay within 109 to 112 °C.

As for `Cc1cc(C)cc(NC(=O)Cc2ccc(OC3(C(=O)O)CCOC3C)cc2)c1` (racemic), the melting point lay within 164 to 167 °C.

`COc1cc(C(=O)O)ccc1CC(=O)Nc1cccc(/C=C/c2nc(C3CCC3)cs2)c1` had a melting point of 242 to 243 °C.

In the case of `CCN(CC)S(=O)(=O)c1cc2c(c(C(=O)NCc3ccccc3)c1)OCCO2`, the melting point turned out to be 125 °C.

The compound `CCOc1ccc(C(OC(C)=O)c2sccc2C=O)cc1OCC` (stereo not drawn) registered a melting point of 68 °C.

Regarding `O=C(Nc1cnc2c(c1)CCN2)c1cc2cc(F)ccc2n1Cc1cccc(F)c1`, the melting point was in the range of 230 to 232 °C.

`CCCCc1nn(-c2cc(N)ccc2Cl)c(=O)n1Cc1ccc(-c2ccccc2S(=O)(=O)NC(C)(C)C)cc1F` came in with a melting point of 167 to 170 °C.

`Cc1ccc2c(c1)CNCC2c1ccc(O)c(O)c1` (stereo not drawn) returned a melting point of 192 to 195 °C.

The compound `COc1cc(N[C@H]2CC[C@H](NC3CCCC3)CC2)c(Cl)cc1C(N)=O` gave a melting point of 169 to 171 °C.

Consider `CN(Cc1cc2c(=O)c(C(=O)NCc3ccc(Cl)cc3)cn(C)c2o1)CC(O)c1ccccn1` (stereo not drawn), for which the melting point lay in the range of 130 to 132 °C.

Consider `O=c1[nH]c2ccccc2n1CCN1CCN(c2ccc(O)c(C(F)(F)F)c2)CC1`, for which the melting point was > 250 °C.

`N#Cc1cc(Cl)c(F)cc1F`: the melting point was in the range of 48 to 50 °C.

With `O=C(CNCc1ccccc1)Nc1cccc2[nH]ccc12`, the melting point fell in the range of 158 to 161 °C.

The compound `CCCCc1ncc(CC(=O)NC(CCc2ccccc2)C(=O)O)n1Cc1ccccc1Cl` (racemic) gave a melting point of 119 to 120 °C.

Turning to `CC(C)(C)C(O)c1ccc(C(=O)O)cc1` (stereo not drawn), the melting point fell in the range of 162 to 163 °C.

As for `O=[N+]([O-])c1cnccc1Nn1ccc2ccccc21`, the melting point was 170 to 172 °C.

Compound `Cc1c(Cl)cccc1NS(=O)(=O)c1cc(S(=O)(=O)Nc2cccc(Cl)c2C)c2ccccc2c1O` yielded a melting point of 245 to 247 °C.

In turn, `CN(C)CCCN1c2ccccc2N(C)C(=O)c2cccnc21` gave a melting point of 98.5 to 100 °C.

`O=Cn1cc(Cl)c(-c2cccc(Cl)c2[N+](=O)[O-])c1`: the melting point was 138 °C.

Compound `CCOC(=O)c1cn(C)nc1OCc1ccc(OCc2nc(-c3ccccc3)oc2C)c(OC)c1` yielded a melting point of 134 to 135 °C.

Turning to `CCOC(=O)c1cccc2c(=O)c(C)c(-c3ccc(OC)cc3)oc12`, the melting point is 137 to 139 °C.

Take `CCOC(=O)c1cc(N=Cc2ccccc2)ccc1O`: the melting point lay within 63 to 65 °C.

The compound `O=Cc1cc(-c2ccc(F)cc2F)ccc1OC(F)(F)F` registered a melting point of 39 to 41 °C.

As to `COc1ccc2c(c1)N=C(NCc1cccnc1)c1ccccc1N2`, the melting point fell in the range of 160 to 161 °C.

The compound `COCCOc1ccc(CCl)c(Oc2ncc(C(F)(F)F)cc2Cl)c1` had a melting point of 108 to 111 °C.

`CCNNc1nc(C)c(C(=O)OCC)c(Cl)c1[N+](=O)[O-]` had a melting point of 117 to 120 °C.

`COCCOc1cc2c(Nc3ccc(Sc4nccn4C)c(Cl)c3)c(C#N)cnc2cc1F` showed a melting point of 265 to 270 °C.

For the compound `FC1(F)Oc2ccc(C=Cc3nc(CNc4ccc(CCCCn5ccnn5)cc4)co3)cc2O1`, the melting point was in the range of 102 to 104 °C.

As to `O=C(Nc1ccc(CN2C(=O)C3CCCC3N(C(=O)CN3C(=O)c4ccccc4C3=O)c3ccccc32)cc1)Oc1ccccc1` (stereo not drawn), the melting point lay within 185 to 187 °C.

The compound `CCOC(=O)c1ccc(NC(=O)C2Cc3cc(SC)ccc3C(=O)CS2)cc1` (stereo not drawn) registered a melting point of 236 to 237 °C.

With `Brc1cnn2c(-c3cccnc3)ccnc12`, the melting point fell in the range of 243 to 244 °C.

As for `COc1ccc(C(=O)c2c(C)n(C(C)=O)c(=O)n2C(C)=O)cc1`, the melting point was 123 to 125 °C.

In turn, `CC(C)(C)OC(=O)NC(CNC(=O)Nc1ccccc1)C(=O)OCc1ccccc1` (stereo not drawn) had a melting point of 48 to 50 °C.

For the compound `CC=Nc1cc(CO)cc(Nc2c3ccccc3nc3ccccc23)c1`, the melting point fell in the range of 158 to 161 °C.

In the case of `CCc1nc2c(cnn2CC)c(NC2CCOCC2)c1CNC(=O)c1cc(C)cc(C(=O)OC)c1`, the melting point lay in the range of 89 to 93 °C.

In turn, `CNC(=O)Cc1ccc2ccn(C3CCN(CCc4ccc(F)cc4)CC3)c2c1` returned a melting point of 149 to 150 °C.

`COc1ccc(N2CCOCC2)c2sc(-c3nc4c([nH]3)CCN(C(C)=O)CC4)nc12` displayed a melting point of 195 to 197 °C.

In the case of `COc1cc(CN2CCN(C(=S)C3(C)CCc4c(C)c(O)c(C)c(C)c4O3)CC2)cc(OC)c1OC` (stereo not drawn), the melting point was determined as 82 °C.

`O=C(c1ccc(C2=CCCCC2)cc1)N1Cc2cccn2Cc2ccccc21` had a melting point of 66 °C.

In turn, `CC1(C)SC2C(NC(c3ccccc3)(c3ccccc3)c3ccccc3)C(=O)N2C1C#N` (stereo not drawn) yielded a melting point of 116 to 119 °C.

In turn, `Cc1ccc2[nH]c3c(cc(-c4cccc(C(=O)N5CCOCC5)c4)c(=O)n3C)c2c1` displayed a melting point of 296 to 298 °C.

In the case of `c1ccc2c(c1)nc1n2CCCC1`, the melting point fell in the range of 104 to 106 °C.

On to `O=C(Cn1c(-c2ccccc2)ncc(NC(=O)OCc2ccc(C(=O)O)cc2)c1=O)NC(Cc1ccccc1)C(=O)C(F)(F)F` (stereo not drawn), for which the melting point fell in the range of 202 to 207 °C.

The compound `COc1cc2c(cc1O)CCC1C2CCC2(C)C1CCC21OCCO1` (stereo not drawn) gave a melting point of 150 to 151 °C.

In turn, `CN(C)C(=O)N(c1ccc(OC(F)(F)F)c(Cl)c1)C(C(=O)O)c1ccc(Cl)cc1` (stereo not drawn) had a melting point of 77 °C.

Turning to `CSC1=Nc2ccc(Cl)cc2Cn2nnnc21`, the melting point is 131 to 133 °C.

Consider `Clc1ccc(C(Cl)c2cc3cc(Cl)cc(Cl)c3o2)cc1` (stereo not drawn), for which the melting point is 72 to 74 °C.

For `CCc1cc(=O)n(-c2cc(OC(C)C)c(Cl)cc2F)c(=O)n1C`, the melting point fell in the range of 72 to 74 °C.

`Cc1nc2cc(Br)cc(Br)c2o1` displayed a melting point of 122 to 124 °C.

For `Cc1c(C(O)C(F)(F)F)oc2c(Br)cccc12` (stereo not drawn), the melting point worked out at 93 °C.

Consider `Cc1nc(-n2ccc(O)cc2=O)sc1C(=O)NCc1cccc(F)c1`, for which the melting point lay in the range of 250 to 252 °C.

`COC(=O)c1ccncc1OC` came in with a melting point of 132 to 135 °C.

`CCN1CCN(C(=O)c2ccc(-c3[nH]nc4c3C(=O)c3c(NC(=O)NN5CCOCC5)cccc3-4)s2)CC1`: the melting point was 186 to 188 °C.

With `CCOC(=O)CCCOc1cccc2cc(C(C)=O)oc12`, the melting point is 47.1 to 48.4 °C.

In turn, `CC(C)(C(Cl)c1ccc2c(c1)OCO2)[N+](=O)[O-]` (stereo not drawn) returned a melting point of 63 to 66 °C.

As to `O=C(CC1CCCOC1=O)c1ccccc1` (stereo not drawn), the melting point is 93 to 94 °C.

In turn, `Cc1nc(NC(=O)c2cnn3c(C(F)(F)F)cc(-c4ccc(C(F)(F)F)cc4)nc23)sc1S(=O)(=O)NCCN(C)C` yielded a melting point of 235 °C.

`Cc1c(C(=O)Nc2cccc(C#N)c2N2CCC(CN3CCOCC3)CC2)cnn1-c1ccc(Cl)cc1`: the melting point turned out to be 235 °C.

By melting point is commonly meant the temperature of the solid-liquid transition.
